Laboratory results as given in patent US9475783B2, “Antimicrobial agents” (Rutgers, the State University of New Jersey, priority 2012, dated 2016).
In brackets after ≈: the same amount, converted by molar mass.

tested on: MSSA; test: Test A antibacterial assay, broth microdilution MIC; format: cell-based; settings: Staphylococcus aureus, growth read after 24 to 48 hours at OD 600 nm
Description: Test A. Antibacterial Assay. Antibacterial activity can be determined as per Clinical and Laboratory Standards Institute (CLSI) guidelines using a broth microdilution assay in which log-phase bacteria are grown at 37° C. in appropriate medium containing two-fold serial dilutions of a compound to yield final concentrations ranging from 256 to 0.06 μg/mL. For determination of minimal inhibitory concentration (MIC) values, bacterial growth is monitored after 24 to 48 hours by measuring optical density at 600 nm.

SMILES	MIC [µg/mL]
CCN(CC)CNC(=O)c1c(Cl)ccc(OCc2nc3cc(Cl)ccc3s2)c1F [Example 42]	2 (≈ 4.38 µM)
CN(CNC(=O)c1c(F)ccc(OCc2nc3cc(Cl)ccc3s2)c1F)Cc1ccc(C(F)(F)F)cc1 [Example 12]	0.5 (≈ 0.899 µM)
Cc1nc(COc2ccc(F)c(C(=O)NCN3CCC(C)CC3)c2F)sc1-c1ccc(C(F)(F)F)cc1 [Example 43]	2 (≈ 3.71 µM)
CN(C)/C=N/C(=O)c1c(F)ccc(O/C(=C/N(C)C)c2nc3cc(Cl)ccc3s2)c1F [Example 45]	32 (≈ 68.8 µM)
CCN(CC)CNC(=O)c1c(F)ccc(OCc2nc3cc(Cl)ccc3s2)c1F [Example 9]	0.125 (≈ 0.284 µM)
Cc1nc(COc2ccc(F)c(C(=O)NCN(C)C)c2F)sc1-c1ccncc1 [Example 1]	> 64
Cc1nc(COc2ccc(F)c(C(=O)NCN(C)Cc3ccc(C(F)(F)F)cc3)c2F)sc1-c1ccc(C(C)(C)C)cc1 [Example 35]	> 64
COc1ccc(CN(C)CNC(=O)c2c(F)ccc(OCc3nc4cc(Cl)ccc4o3)c2F)cc1 [Example 26]	16 (≈ 31.9 µM)
CN(CNC(=O)c1c(F)ccc(OCc2nc3cc(Cl)cnc3s2)c1F)Cc1ccc(C(F)(F)F)cc1 [Example 13]	1 (≈ 1.8 µM)
O=C(NC(c1ccccc1)N1CCOCC1)c1c(F)ccc(OCc2nc3cc(Cl)ccc3s2)c1F (centres unmarked) [Example 28]	0.25 (≈ 0.472 µM)
CN(C)/C=N/C(=O)c1c(F)ccc(OCc2nc3cc(Cl)ccc3s2)c1F [Example 3]	< 0.125
CN1CCN(C(NC(=O)c2c(F)ccc(OCc3nc4cc(Cl)ccc4s3)c2F)c2ccncc2)CC1 (centres unmarked) [Example 37]	0.5 (≈ 0.919 µM)
O=C(NCn1ccnc1)c1c(F)ccc(OCc2nc3cc(Cl)ccc3s2)c1F [Example 2]	> 64

Next, values leading:

MIC [µg/mL]	SMILES
8 (≈ 23.4 µM)	Cc1csc(COc2ccc(F)c(C(=O)NCN(C)C)c2F)n1 [Example 46]
1 (≈ 1.94 µM)	CCN(CC)CNC(=O)c1c(F)ccc(OC(C)c2nc(C)c(-c3ccc(C(C)(C)C)cc3)s2)c1F (centres unmarked) [Example 19]
0.5 (≈ 0.948 µM)	Cc1nc(COc2ccc(F)c(C(=O)NCN3CCC(C)CC3)c2F)sc1-c1ccc(C(C)(C)C)cc1 [Example 21]
0.5 (≈ 1.07 µM)	CC1CCN(CNC(=O)c2c(F)ccc(OCc3nc4cc(Cl)cnc4s3)c2F)CC1 [Example 17]
0.5 (≈ 0.994 µM)	Cc1ccc(CN(C)CNC(=O)c2c(F)ccc(OCc3nc4cc(Cl)cnc4s3)c2F)cc1 [Example 15]
0.5 (≈ 0.804 µM)	CN1CCN(C(NC(=O)c2c(F)ccc(OCc3nc4cc(Cl)ccc4s3)c2F)c2cccc(Br)c2)CC1 (centres unmarked) [Example 31]
0.25 (≈ 0.483 µM)	COc1ccc(CN(C)CNC(=O)c2c(F)ccc(OCc3nc4cc(Cl)ccc4s3)c2F)cc1 [Example 10]
0.25 (≈ 0.498 µM)	Cc1ccc(CN(C)CNC(=O)c2c(F)ccc(OCc3nc4cc(Cl)ccc4s3)c2F)cc1 [Example 14]

tested on: MSSA (S. aureus); test: Test E in vivo efficacy, murine septicemia model of staphylococcal infection; settings: MSSA-infected mice, i.v. treatment; 24 h monitoring
Description: Test E. In Vivo Efficacy in the Mouse Peritonitis or Mouse Septicemia Model.
Assessment of in vivo efficacy was performed using femal Swiss Webster mice (obtained from Taconic Farms, Germantown, Pa.) employing a murine septicemia model of staphylococcal infection. For bioassays examining efficacy against MSSA, each mouse was inoculated intraperitoneally with 500 μl of an inoculum containing 1.0×10^8 CFU per ml of S. aureus. All of the in vivo efficacy studies include a negative control group of infected mice treated intravenously either with vehicle alone (6 mice) or untreated (6 mice), as well as a positive control groups of infected mice treated with 200 ul of […] of vancomycin administered intravenously (4 mice) and a second control group using 2.0 mg/ml of oxacillin (4 mice). After the mice were infected, groups of six mice are treated by tail vein injection with 300 ul of a solution containing 2.0 mg of Example 6 in 10 mM citrate. Mice received four doses Example 6 administered with a 15 minute interval. Control mice are treated with vancomycin qd, oxacillin b.i.d, or vehicle alone. […] Animals are given food and water ad libitum. Survival within each experimental group is monitored over a 24 hout time period. Monitoring of the mice began 4 hours after the start of experiment. All of the effective mice treated with Example 6 survived the infection (5/5, 100% survival). All of the oxacillin-treated (4/4) and vancomycin-treated mice (4/4) survived the infection. All of the vehicle controls died within 12 hours, with 0/6 or 0% survival. Among the infected mice that receive no treatment, only 1/6 survived (16.7% survival).

SMILES	mice surviving the infection / mice
CN[C@H](CC(C)C)C(=O)N[C@H]1C(=O)N[C@@H](CC(N)=O)C(=O)N[C@H]2C(=O)N[C@H]3C(=O)N[C@H](C(=O)N[C@H](C(=O)O)c4cc(O)cc(O)c4-c4cc3ccc4O)[C@H](O)c3ccc(c(Cl)c3)Oc3cc2cc(c3O[C@@H]2O[C@H](CO)[C@@H](O)[C@H](O)[C@H]2O[C@H]2C[C@](C)(N)[C@H](O)[C@H](C)O2)Oc2ccc(cc2Cl)[C@H]1O [vancomycin, reference compound]	4/4
Cc1onc(-c2ccccc2)c1C(=O)N[C@@H]1C(=O)N2[C@@H]1SC(C)(C)[C@@H]2C(=O)O [oxacillin, reference compound]	4/4
